These results are taken from ChEMBL document CHEMBL1201862, “PubChem BioAssay data set” (2004).

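Results reflect a 48-hour exposure of cells in 96-well plates to compound at five concentrations. GI50 = concentration required for 50% inhibition of growth.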 Calls of active or inactive are those of the source. No stated cut-off is given here; in the data, active = GI50 up to about 1.1 µM and inactive = higher.

Test systems include IGROV-1; M14; SR; TK-10; NCI-H460; HOP-92; MOLT-4; OVCAR-4; SF-268; OVCAR-3; SF-539; SF-295; SK-MEL-2; Malme-3M; HCT-15; RPMI-8226; HCC 2998; SNB-75.
What all share (test): inhibition of tumour cell growth, NCI panel, 48 h

Take `CC(=O)NNc1nc(C)c(C(=O)NNC(=O)C(=O)Nc2ccc(Cl)c([N+](=O)[O-])c2)s1`: the GI50 is > 100 µM (inactive) with IGROV-1; > 100 µM (inactive) in the assay with M14; 35.1 µM (inactive) in the assay with SR; > 100 µM (inactive) with TK-10; > 100 µM (inactive) in the assay with NCI-H460; 43.3 µM (inactive) in the assay with HOP-92. Also, the GI50 is 20 µM (inactive) in the assay with MOLT-4; 34.4 µM (inactive) with OVCAR-4; 35.8 µM (inactive) in the assay with SF-268; 30.4 µM (inactive) in the assay on OVCAR-3; 53 µM (inactive) in the assay with SF-539; 74.8 µM (inactive) with SF-295. Moreover, the GI50 in the assay with SK-MEL-2 is > 100 µM (inactive); in the assay with Malme-3M it was 71.4 µM (inactive); with HCT-15, 49.3 µM; in the assay on RPMI-8226 it was 43.7 µM (inactive); with HCC 2998 it was 66.1 µM (inactive).

As for `CNS(=O)(=O)NNS(=O)(=O)c1ccc(F)cc1`, the GI50 with IGROV-1 was > 100 µM (inactive); in the assay on M14, > 100 µM (inactive); in the assay on SR, > 100 µM (inactive); in the assay on SNB-75 it was > 100 µM (inactive); with NCI-H460, 59.3 µM (inactive); in the assay with MOLT-4, > 100 µM (inactive). Besides, the GI50 with OVCAR-4, in the assay with SF-268, in the assay on OVCAR-3, in the assay with SF-539, with SF-295 and in the assay on SK-MEL-2 was > 100 µM (inactive) each time. The figures for the GI50 in the assay on HCT-15 and with RPMI-8226 were over 100 µM and > 100 µM (inactive), respectively.

Regarding `O=C(NN1C(=O)CS(=O)(=O)C1c1cccc(F)c1)c1ccncc1` (stereo unspecified), the GI50 in the assay on M14 is > 100 µM (inactive); in the assay with SR, > 100 µM (inactive); in the assay with SNB-75 it was 83.8 µM (inactive); with TK-10 it was > 100 µM (inactive); in the assay on NCI-H460, > 100 µM (inactive); with HOP-92, > 100 µM (inactive). In addition, the GI50 with MOLT-4, with OVCAR-4, in the assay on SF-268, with SF-295, in the assay on SK-MEL-2 and with Malme-3M was > 100 µM (inactive) throughout. For the same molecule, the GI50 is over 100 µM with HCT-15, > 100 µM (inactive) in the assay with RPMI-8226 and > 100 µM (inactive) in the assay with HCC 2998.

Turning to `Cc1ccc(Nc2nc(C)c(C(/C=C/c3ccc4c(c3)OCO4)=N/Nc3ccc([N+](=O)[O-])cc3[N+](=O)[O-])s2)c([N+](=O)[O-])c1`, the GI50 in the assay with IGROV-1 was 62.7 µM (inactive); in the assay with M14, 61.7 µM (inactive); with SR, 24.4 µM (inactive); in the assay on SNB-75 it was 56.8 µM (inactive); in the assay on TK-10 it was 37.8 µM (inactive); in the assay on NCI-H460, 41 µM (inactive). In addition, the GI50 in the assay with MOLT-4 was 21.7 µM (inactive); with OVCAR-4 it was 56.6 µM (inactive); in the assay on SF-268, 53.2 µM (inactive); with OVCAR-3, 35.2 µM (inactive); with SF-539 it was 36.3 µM (inactive); in the assay with SF-295, 65 µM (inactive). Further, the GI50 in the assay on SK-MEL-2 is 28 µM (inactive); in the assay with Malme-3M, 65.3 µM (inactive); with HCT-15, 25.8 µM; in the assay with HCC 2998, 28.6 µM (inactive).

Regarding `Cc1ccc(S(=O)(=O)N/N=C(\C(=O)Nc2cccc([N+](=O)[O-])c2)c2nc3ccc([N+](=O)[O-])cc3nc2O)cc1`, the GI50 was > 100 µM (inactive) in the assay on IGROV-1; > 100 µM (inactive) with M14; 34 µM (inactive) in the assay on SR; 33.5 µM (inactive) in the assay with NCI-H460; > 100 µM (inactive) with HOP-92; 24 µM (inactive) in the assay on MOLT-4. The GI50 in the assay on OVCAR-4 is > 100 µM (inactive); in the assay with SF-268 it was 48.5 µM (inactive); in the assay with OVCAR-3, > 100 µM (inactive); in the assay with SF-539 it was 24.6 µM (inactive); in the assay on SF-295, 29 µM (inactive); in the assay with SK-MEL-2, > 100 µM (inactive). The GI50 is 77.3 µM (inactive) in the assay with Malme-3M, 16.3 µM with HCT-15, 54.7 µM (inactive) in the assay with RPMI-8226 and 30.1 µM (inactive) with HCC 2998.

With `COc1cc(C(C)c2cc3c(cc2OCCNC(=O)COc2cc4c(cc2C(C)c2cc(OC)c(OC)c(OC)c2)OCO4)OCO3)cc(OC)c1OC` (stereo unspecified), the GI50 in the assay with IGROV-1 was > 100 µM (inactive); with M14, 85.3 µM (inactive); in the assay on SR, > 100 µM (inactive); in the assay with SNB-75 it was 3.09 µM (inactive); in the assay with TK-10, > 100 µM (inactive); in the assay on NCI-H460, 22.2 µM (inactive). Further, the GI50 is 7.13 µM (inactive) with MOLT-4; > 100 µM (inactive) in the assay with OVCAR-4; 50.4 µM (inactive) in the assay on SF-268; 67.3 µM (inactive) with OVCAR-3; > 100 µM (inactive) in the assay with SF-539; > 100 µM (inactive) in the assay on SF-295. Moreover, the GI50 in the assay on SK-MEL-2 is > 100 µM (inactive); with Malme-3M, > 100 µM (inactive); in the assay with HCT-15, 87.3 µM; in the assay on HCC 2998 it was > 100 µM (inactive).

On to `N#CC(/C(CCCC(=O)Nc1cccc([N+](=O)[O-])c1)=N\NC(=O)c1c(O)ccc2ccccc12)c1nc2ccccc2s1` (stereo unspecified), for which the GI50 in the assay with IGROV-1 was 13.3 µM (inactive); with M14, 26.9 µM (inactive); in the assay on SR, 17.5 µM (inactive); in the assay on SNB-75 it was 10.7 µM (inactive); in the assay on NCI-H460, 13.7 µM (inactive); with HOP-92, 53.1 µM (inactive). Also, the GI50 with MOLT-4 is 11.7 µM (inactive); in the assay on OVCAR-4, 24.3 µM (inactive); with SF-268, 13.1 µM (inactive); in the assay on OVCAR-3, 16.3 µM (inactive); with SF-539, 15.3 µM (inactive); in the assay on SF-295, 28.6 µM (inactive). For the same molecule, the results for the GI50 in the assay with SK-MEL-2 and with Malme-3M were 27.1 µM (inactive) and 35 µM (inactive), respectively.

For the molecule `CCC(=O)OC[n+]1ccc2c(C)c3[nH]c4ccc(OC)cc4c3c(C)c2c1`, the GI50 with IGROV-1 was 0.048 µM (active); in the assay with M14, 0.333 µM (active); in the assay with SR, 0.0134 µM (active); in the assay with SNB-75, 0.434 µM (active); in the assay on TK-10, 0.94 µM (active); in the assay on NCI-H460 it was 0.0199 µM (active). Also, the GI50 in the assay with HOP-92 was 0.0556 µM (active); with MOLT-4 it was 0.0142 µM (active); in the assay on OVCAR-4 it was 0.0865 µM (active); in the assay with SF-268, 0.24 µM (active); with OVCAR-3, 1.34 µM (inactive); in the assay with SF-539 it was 0.243 µM (active). The GI50 with SF-295 is 0.0738 µM (active); in the assay with SK-MEL-2 it was 0.291 µM (active); in the assay with Malme-3M, 0.627 µM (active); in the assay on RPMI-8226, 0.182 µM (active).

As for `CC1OC(n2ccc3ccc([N+](=O)[O-])cc32)C(O)C(O)C1O` (stereo unspecified), the GI50 in the assay on IGROV-1, in the assay with M14, in the assay on SR, with SNB-75, in the assay with TK-10 and in the assay on NCI-H460 was > 100 µM (inactive) throughout. Further, the GI50 in the assay on HOP-92, in the assay with MOLT-4, in the assay on OVCAR-4, in the assay on SF-268, in the assay on OVCAR-3 and in the assay with SF-539 was > 100 µM (inactive) each time. For the same molecule, the GI50 is > 100 µM (inactive) in the assay with SF-295; > 100 µM (inactive) in the assay on SK-MEL-2; > 100 µM (inactive) with Malme-3M; over 100 µM in the assay on HCT-15; > 100 µM (inactive) in the assay on RPMI-8226.

Take `CN(C)CCNC(=O)c1cccc2nc3c(Cl)cccc3nc12`: the GI50 is 6.41 µM (inactive) in the assay on IGROV-1; 6.24 µM (inactive) in the assay on M14; 1.51 µM (inactive) in the assay with SR; 7.48 µM (inactive) in the assay on SNB-75; 4.09 µM (inactive) in the assay on TK-10; 2.84 µM (inactive) with HOP-92. Moreover, the GI50 in the assay on MOLT-4 was 2.38 µM (inactive); in the assay with OVCAR-4 it was 6.31 µM (inactive); in the assay with OVCAR-3 it was 6.38 µM (inactive); in the assay on SF-539 it was 4.75 µM (inactive); in the assay on SF-295, 4.8 µM (inactive); with SK-MEL-2 it was 5.22 µM (inactive). Further, the GI50 was 2 µM (inactive) in the assay with Malme-3M, 4.08 µM in the assay with HCT-15, 4.23 µM (inactive) with RPMI-8226 and 8.85 µM (inactive) with HCC 2998.

Turning to `COC(=O)C1N=CSCC1(C)O` (stereo unspecified), the GI50 with IGROV-1, with M14, in the assay on SNB-75, in the assay with TK-10, with NCI-H460 and in the assay with HOP-92 was > 100 µM (inactive) each time. Further, the GI50 in the assay on MOLT-4, with OVCAR-4, in the assay with SF-268, with OVCAR-3, in the assay with SF-539 and with SF-295 was > 100 µM (inactive) throughout. In addition, the GI50 with SK-MEL-2 is > 100 µM (inactive); with Malme-3M, > 100 µM (inactive); in the assay with HCT-15, over 100 µM; with RPMI-8226, > 100 µM (inactive); in the assay with HCC 2998 it was > 100 µM (inactive).

Regarding `CCCCCCCCCCCCCCCCCC(=O)NCC(COP(=O)([O-])OCC[N+](C)(C)C)OC` (stereo unspecified), the GI50 in the assay with IGROV-1 is 1.91 µM (inactive); in the assay on M14, 11.5 µM (inactive); in the assay on SR it was 2.16 µM (inactive); in the assay with SNB-75, 5 µM (inactive); in the assay on TK-10, 1.56 µM (inactive); in the assay on NCI-H460, 1.27 µM (inactive). In addition, the GI50 is 2.64 µM (inactive) in the assay with HOP-92; 1.76 µM (inactive) in the assay on MOLT-4; 3.6 µM (inactive) in the assay on OVCAR-4; 5.2 µM (inactive) with SF-268; 3.37 µM (inactive) in the assay on OVCAR-3; 17.6 µM (inactive) in the assay with SF-539. The GI50 is 3.46 µM (inactive) in the assay on SF-295; 8.59 µM (inactive) with Malme-3M; 1.95 µM in the assay with HCT-15; 1.63 µM (inactive) with RPMI-8226; 1.05 µM (active) in the assay on HCC 2998.
